Assay results taken from US20080260896A1 (priority 2007, published 2008).
Where two headings read alike, the source gives them in different places. Marks after values point to notes of the source that are not given here.

How the values were obtained:
[1] = Crude glycerin in finishing cattle diets: animal performance (weight, ADG, DMI, gain/feed); format: in vivo, Angus-cross steers; conditions: for Gain/Feed, ×100 / Weight / Average Daily Gain / Dry Matter Intake: 10% DM glycerin
Description: (§1) All cattle were adapted on a common 4-step transition prior to initiation of the evaluation. Cattle were blocked by weight (4 blocks) with four pens per treatment (9-10 head/pen). […] Individual weights were collected at 28-day intervals throughout with steers terminated on three harvest dates (days on feed 116 to 153 days) based on weight and condition. Six monthly periods and cumulative (d 1-116 and 1-153) periods were analyzed.

[2] = Crude glycerin in finishing cattle diets: carcass merit; format: in vivo, Angus-cross steers; conditions: for Adjusted Carcass Live Wt / Backfat Depth / Choice 0 / Choice - / Dress / Hot Carcass Weight / KPH Fat / Live Weight / Marbling Score / Ribeye Area / YG 2 / YG 3 / YG 4 / Yield Grade / Carcass Value: 10% DM glycerin; for Carcass Value: calculated from carcass weight, premiums and discounts
Description: as §1, with “analyzed. […] Carcass value was calculated using actual carcass weight and associated premiums and discounts for quality and yield grades.” for “analyzed.”

[3] = Gross energy of crude glycerin sample; format: physicochemical; conditions: test crude glycerin sample with 14.8% moisture
[4] = male, crossbred, cattle, in vivo
Description: A subset of ten cattle (5 from each treatment) were used for baseline and withdrawal sampling of rumen fluid and blood plasma for residual methanol quantification. […] Withdrawal samples were collected from the same subset of animals.

[5] = Day 133-153, DDGS:Soy Hulls 10:0 diet (Treatment 2)
[6] = Day 133-153, DDGS:Soy Hulls 30:15 diet (Treatment 4)
[7] = Day 133-153, main effect over both diets
[8] = high co-product diets with glycerin
[9] = DDGS:Soy Hulls 10:0 diet (Treatment 2)
[10] = DDGS:Soy Hulls 30:15 diet (Treatment 4)

OCC(O)CO [crude glycerin, glycerin]
Gain/Feed, ×100 ([1]; Day 117-132, main effect over both diets): 15.06
Weight ([1]; Day 132, DDGS:Soy Hulls 10:0 diet (Treatment 2)): 552.8 kg
Weight ([1]; Day 132, DDGS:Soy Hulls 30:15 diet (Treatment 4)): 548.8 kg
Weight ([1]; Day 132, main effect over both diets): 550.8 kg
Average Daily Gain [1, 5]: 1.39^a kg/hd/d
Dry Matter Intake [1, 5]: 8.48 kg/hd/d
Gain/Feed, ×100 [1, 5]: 16.48^a
Average Daily Gain [1, 6]: 0.90^b kg/hd/d
Dry Matter Intake [1, 6]: 9.42 kg/hd/d
Gain/Feed, ×100 [1, 6]: 9.35^b
Average Daily Gain [1, 7]: 1.15 kg/hd/d
Dry Matter Intake [1, 7]: 8.95 kg/hd/d
Gain/Feed, ×100 [1, 7]: 12.92
Weight ([1]; Day 153, DDGS:Soy Hulls 10:0 diet (Treatment 2)): 570.5 kg
Weight ([1]; Day 153, DDGS:Soy Hulls 30:15 diet (Treatment 4)): 548.0 kg
Weight ([1]; Day 153, main effect over both diets): 559.3 kg
Cumulative ADG better [1, 8]: 2.5%
cumulative DMI lower [1, 8]: 11.8%
cumulative gain: feed better [1, 8]: 16.4%
Cumulative ADG greater ([1]; high-grain diets with glycerin): 11.4%
cumulative DMI lesser ([1]; high-grain diets with glycerin): 8.1%
cumulative gain: feed greater ([1]; high-grain diets with glycerin): 21.9%
Cumulative ADG ([1]; steers fed diets containing 10% crude glycerin (main effect)): 1.24 kg/day
dry matter intake (DMI) ([1]; steers fed diets with added glycerin (main effect), cumulative): 8.68 kg/day
Adjusted Carcass Live Wt [2, 9]: 567.9^a kg
Backfat Depth [2, 9]: 1.40 cm
Choice 0 [2, 9]: 66.7%
Choice - [2, 9]: 94.4%
Dress [2, 9]: 61.59%
Hot Carcass Weight [2, 9]: 357.7^a kg
KPH Fat [2, 9]: 1.90%
Live Weight [2, 9]: 581.0^a kg
Marbling Score [2, 9]: 623.1
Ribeye Area [2, 9]: 85.49 sq cm
YG 2 [2, 9]: 44.4%
YG 3 [2, 9]: 55.6%
YG 4 [2, 9]: 0.0%
Yield Grade [2, 9]: 3.01
Carcass Value [2, 9]: 1038.6^a
Adjusted Carcass Live Wt [2, 10]: 551.4^ab kg
Backfat Depth [2, 10]: 1.48 cm
Choice 0 [2, 10]: 65.0%
Choice - [2, 10]: 95.0%
Dress [2, 10]: 61.65%
Hot Carcass Weight [2, 10]: 347.4^ab kg
KPH Fat [2, 10]: 1.87%
Live Weight [2, 10]: 563.3^ab kg
Marbling Score [2, 10]: 630.1
Ribeye Area [2, 10]: 84.86 sq cm
YG 2 [2, 10]: 45.0%
YG 3 [2, 10]: 55.0%
YG 4 [2, 10]: 0.0%
Yield Grade [2, 10]: 3.07
Carcass Value [2, 10]: 1008.5^ab
Adjusted Carcass Live Wt ([2]; main effect over both diets): 559.6 kg
Backfat Depth ([2]; main effect over both diets): 1.44 cm
Choice 0 ([2]; main effect over both diets): 65.8%
Choice - ([2]; main effect over both diets): 94.7%
Dress ([2]; main effect over both diets): 61.62%
Hot Carcass Weight ([2]; main effect over both diets): 352.6 kg
KPH Fat ([2]; main effect over both diets): 1.88%
Live Weight ([2]; main effect over both diets): 572.2 kg
Marbling Score ([2]; main effect over both diets): 626.6
Ribeye Area ([2]; main effect over both diets): 85.18 sq cm
YG 2 ([2]; main effect over both diets): 44.7%
YG 3 ([2]; main effect over both diets): 55.3%
YG 4 ([2]; main effect over both diets): 0.0%
Yield Grade ([2]; main effect over both diets): 3.04
Carcass Value ([2]; main effect over both diets): 1023.5
final and hot carcass weight, ribeye area, carcass value versus control ([2]; steers fed 10% crude glycerin): tended (P<0.10) to have greater final and hot carcass weight, ribeye area, and resulting carcass value
Gross energy [3]: 3845 kcal/kg
animals with measurable methanol in rumen fluid [4]: 50%
animals with measurable methanol in rumen fluid ([4]; 16 day): 100%
methanol in rumen fluid ([4]; 16 day): ≤ 23.77 ppm
